For 21 compounds, IC50 results are on record in patent US20240228506A1, “RIPK1 INHIBITORS AND METHODS OF USE” (Merck Sharp & Dohme LLC, priority 2021, published 2024).

The target of the assay is T1, GST-RIPK1 (recombinant GST-RIPK1 kinase domain (residues 1-327)) (Homo sapiens, UniProt Q13546).
T1 construct: recombinant GST-RIPK1 kinase domain (residues 1-327) enzyme; made in house; host or cells: baculovirus-transfected Sf21 insect cells
T1 sequence (Q13546 1-327): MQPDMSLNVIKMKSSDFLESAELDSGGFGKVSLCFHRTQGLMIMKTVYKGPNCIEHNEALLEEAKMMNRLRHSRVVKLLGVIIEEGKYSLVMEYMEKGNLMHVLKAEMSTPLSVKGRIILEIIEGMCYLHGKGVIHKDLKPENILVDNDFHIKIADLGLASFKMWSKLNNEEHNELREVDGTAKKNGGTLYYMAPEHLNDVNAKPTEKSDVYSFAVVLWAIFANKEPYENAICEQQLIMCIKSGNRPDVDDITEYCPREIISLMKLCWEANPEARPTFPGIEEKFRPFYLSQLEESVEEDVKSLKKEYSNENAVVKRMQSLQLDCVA
Put plainly: RIPK1-ADP-Glo enzymatic assay. The note with it: 25 nM GST-RIPK1, 300 μM ATP, 3 μM dephosphorylated-MBP; 30 minutes pre-incubation, 150 minutes reaction; ten-point titration. The format is biochemical. The essentials: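 Ten-point 1:3 titrations from 100000 nM, 1% DMSO, were preincubated 30 min with 25 nM GST-RIPK1 (1-327) before starting with 300 μM ATP plus 3 μM dephosphorylated MBP; 150 min reaction. ADP-Glo luminescence measured ATP-to-ADP conversion; EC50 by four-parameter sigmoidal regression.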
In general terms: ADP-Glo first removes unused ATP, then detects ADP through luciferase.
As a reminder, the IC50 is the concentration needed to halve the response being measured. As to `CC1(C(=O)N2C[C@@H]3C[C@H]2c2cncc(C#N)c2O3)CCC(F)(F)C1` (stereo partly drawn) [Compound 1-30, (2S,5S)-4-(3,3-difluoro-1-methylcyclopentane-1-carbonyl)-2,3,4,5-tetrahydro-2,5-methanopyrido[3,4-f][1,4]oxazepine-9-carbonitrile], the IC50 stood at 66 nM. Take `Cc1ncccc1C#Cc1cncc2c1O[C@H]1C[C@@H]2N(C(=O)C(C)(C)C(F)F)C1` [Compound 2-82, 3,3-difluoro-2,2-dimethyl-1-((2S,5S)-9-((2-methylpyridin-3-yl)ethynyl)-2,3-dihydro-2,5-methanopyrido[3,4-f][1,4]oxazepin-4(5H)-yl)propan-1-one]: the IC50 came to 66 nM. The same measure for `CC(C)(C)C(=O)N1C[C@@H]2C[C@H]1c1cncc(C#N)c1O2` [Compound 1-3, (2S,5S)-4-(2,2-dimethylpropanoyl)-2,3,4,5-tetrahydro-2,5-methanopyrido[3,4-f][1,4]oxazepine-9-carbonitrile]: 50 nM. As to `CC(C)(C)CCC#Cc1cncc2c1O[C@H]1C[C@@H]2N(C(=O)C(C)(C)C(F)F)C1` [Compound 2-108, 1-((2S,5S)-9-(5,5-dimethylhex-1-yn-1-yl)-2,3-dihydro-2,5-methanopyrido[3,4-f][1,4]oxazepin-4(5H)-yl)-3,3-difluoro-2,2-dimethylpropan-1-one], the IC50 was found to be 163 nM. Consider `CC(C)C(C)(C)C(=O)N1C[C@@H]2C[C@H]1c1cncc(C#N)c1O2` [Compound 1-34, (2S,5S)-4-(2,2,3-trimethylbutanoyl)-2,3,4,5-tetrahydro-2,5-methanopyrido[3,4-f][1,4]oxazepine-9-carbonitrile], for which the IC50 was found to be 24 nM. For `CC1(C(=O)N2C[C@@H]3C[C@H]2c2cncc(C#N)c2O3)CCCC(F)(F)C1` (single isomer, unassigned) [Compound 1-40, (2S,5S)-4-[3,3-difluoro-1(R or S)-methylcyclohexane-1-carbonyl]-2,3,4,5-tetrahydro-2,5-methanopyrido[3,4-f][1,4]oxazepine-9-carbonitrile], the IC50 came out at 62 nM.

Take `CC1(C(=O)N2C[C@@H]3C[C@H]2c2cncc(C#N)c2O3)CC(F)(F)C1` [Compound 1-77, (2S,5S)-4-(3,3-difluoro-1-methylcyclobutane-1-carbonyl)-2,3,4,5-tetrahydro-2,5-methanopyrido[3,4-f][1,4]oxazepine-9-carbonitrile]: the IC50 came out at 139 nM.

In the case of `CC(C)C#Cc1cncc2c1O[C@H]1C[C@@H]2N(C(=O)C(C)(C)C(F)F)C1` [Compound 2-106, 3,3-Difluoro-2,2-dimethyl-1-((2S,5S)-9-(3-methylbut-1-yn-1-yl)-2,3-dihydro-2,5-methanopyrido[3,4-f][1,4]oxazepin-4(5H)-yl)propan-1-one], the IC50 came to 197 nM.

For the compound `CC(C)(C(=O)N1C[C@@H]2C[C@H]1c1cncc(C#Cc3cnc4cncn4c3)c1O2)C(F)F` [Compound 2-93, 3,3-difluoro-1-((2S,5S)-9-(imidazo[1,5-a]pyrimidin-3-ylethynyl)-2,3-dihydro-2,5-methanopyrido[3,4-f][1,4]oxazepin-4(5H)-yl)-2,2-dimethylpropan-1-one], the IC50 turned out to be 58 nM. On to `CC(C(=O)N1C[C@@H]2C[C@H]1c1cncc(C#N)c1O2)(C(F)F)C1CC1` (single isomer, unassigned) [Compound 1-88, (2S,5S)-4-(2-(R or S)-cyclopropyl-3,3-difluoro-2-methylpropanoyl)-2,3,4,5-tetrahydro-2,5-methanopyrido[3,4-f][1,4]oxazepine-9-carbonitrile], for which the IC50 amounted to 96 nM. `N#Cc1cncc2c1O[C@H]1C[C@@H]2N(C(=O)C23CCC(C#N)(C2)C3)C1` [Compound 1-100, (2S,5S)-4-(4-cyanobicyclo[2.1.1]hexane-1-carbonyl)-2,3,4,5-tetrahydro-2,5-methanopyrido[3,4-f][1,4]oxazepine-9-carbonitrile]: the IC50 worked out at 28 nM. With `CCC(C)(OC)C(=O)N1C[C@@H]2C[C@H]1c1cncc(C#N)c1O2` (single isomer, unassigned) [Compound 1-16, (2S,5S)-4-[2(S or R)-methoxy-2-methylbutanoyl]-2,3,4,5-tetrahydro-2,5-methanopyrido[3,4-f][1,4]oxazepine-9-carbonitrile], the IC50 worked out at 10 nM. In the case of `CC(C)(C(=O)N1C[C@@H]2C[C@H]1c1cncc(C#Cc3cnccn3)c1O2)C(F)F` [Compound 2-49, 3,3-difluoro-2,2-dimethyl-1-((2S,5S)-9-(pyrazin-2-ylethynyl)-2,3-dihydro-2,5-methanopyrido[3,4-f][1,4]oxazepin-4(5H)-yl)propan-1-one], the half-inhibitory concentration (IC50) turned out to be 83 nM. For the compound `N#Cc1cncc2c1O[C@H]1C[C@@H]2N(C(=O)C23CCC(CC2(F)F)C3)C1` (single isomer, unassigned) [Compound 1-49, (2S,5S)-4-[(S or R)-2,2-difluorobicyclo[2.2.1]heptane-1-carbonyl]-2,3,4,5-tetrahydro-2,5-methanopyrido[3,4-f][1,4]oxazepine-9-carbonitrile], the IC50 worked out at 70 nM.

As for `N#Cc1cncc2c1O[C@H]1C[C@@H]2N(C(=O)[C@H]2C[C@H](Oc3ccc(F)cc3F)C2)C1` [Compound 1-102], the concentration for half-maximal inhibition (IC50) amounted to 76 nM. Take `CC1(C(=O)N2C[C@@H]3C[C@H]2c2cncc(C#Cc4ccc(F)cc4)c2O3)CCCC1` [Compound 2-121, ((2S,5S)-9-((4-Fluorophenyl)ethynyl)-2,3-dihydro-2,5-methanopyrido[3,4-f][1,4]oxazepin-4(5H)-yl)(1-methylcyclopentyl)methanone]: the IC50 stood at 34 nM. As to `N#CCc1cccc(C#Cc2cncc3c2O[C@H]2C[C@@H]3N(C(=O)C34CCC(F)(CC3)C4)C2)c1` [Compound 2-99, 2-(3-(((2S,5S)-4-(4-fluorobicyclo[2.2.1]heptane-1-carbonyl)-2,3,4,5-tetrahydro-2,5-methanopyrido[3,4-f][1,4]oxazepin-9-yl)ethynyl)phenyl) acetonitrile], the IC50 was 10 nM. In the case of `CC(C)(C(=O)N1C[C@@H]2C[C@H]1c1cncc(C#Cc3cncnc3)c1O2)C(F)F` [Compound 2-45, 3,3-difluoro-2,2-dimethyl-1-((2S,5S)-9-(pyrimidin-5-ylethynyl)-2,3-dihydro-2,5-methanopyrido[3,4-f][1,4]oxazepin-4(5H)-yl)propan-1-one], the IC50 was determined as 32 nM. For `N#Cc1cncc2c1O[C@H]1C[C@@H]2N(C(=O)C23CCC(C2)OC3)C1` (single isomer, unassigned) [Compound 1-50, (2S,5S)-4-[(S or R)-2-oxabicyclo[2.2.1]heptane-4-carbonyl]-2,3,4,5-tetrahydro-2,5-methanopyrido[3,4-f][1,4]oxazepine-9-carbonitrile], the IC50 amounted to 300 nM. Under `N#Cc1cncc2c1O[C@H]1C[C@@H]2N(C(=O)C23CC(C(F)(F)F)(CO2)C3)C1` [Compound 1-66, (2S,5S)-4-(4-(trifluoromethyl)-2-oxabicyclo[2.1.1]hexane-1-carbonyl)-2,3,4,5-tetrahydro-2,5-methanopyrido[3,4-f][1,4]oxazepine-9-carbonitrile] stands 514 nM; under `N#Cc1cncc2c1O[C@H]1C[C@@H]2N(C(=O)C23CCC(C2)OC3)C1` (single isomer, unassigned) [Compound 1-51, (2S,5S)-4-[(S or R)-2-oxabicyclo[2.2.1]heptane-4-carbonyl]-2,3,4,5-tetrahydro-2,5-methanopyrido[3,4-f][1,4]oxazepine-9-carbonitrile], 367 nM.
